{"source": "patent US8501734B2", "about": "“Medical intervention in haematological cancers” (Oncotyrol-Center for Personalized Cancer Medicine GmbH …, priority 2008, dated 2013)", "key": {"[1]": {"system": "human epidermoid carcinoma cell line A431", "assay": "Apoptosis induction in A431 cells", "type": "cell-based", "description": "(§1) After treatment adherent cells were trypsinized (as described before), and resuspended in corresponding full medium. Suspension cells or trypsinized adherent cells, supernatant and washing solution (1×PBS from washing before trypsinization) were pooled and then spun down (300 g for 3 min) washed in 2 ml and resuspended in 1000 of annexin V binding buffer and mixed with 2 μg/ml annexin V-Allophycocyanin (APC) (BD-Pharmingen, San Diego, Calif., USA) and 50 ng/ml of propidium iodide (PI; Sigma Aldrich). At least 10.000 cells were measured per sample using a Becton Dickinson FACSCalibur flow Cytometer (San Jose, Calif., USA). Percentage of Annexin V negative and PI negative cells were depicted in the figures. […] Briefly, BMMCs were stained with a mixture of annexin V/FITC (Alexis Coorp., Laeufelfingen, Switzerland), propidium iodide (Sigma), anti-CD38-PE and anti-CD45-PC5 for 15 min at room temperature and immediately analyzed by flow cytometry. The percentages of viable cells (i.e. cells negative for annexin V/FITC and PI) within the MM (CD38^posCD45^low/absent) and non-MM fraction (CD38^neg/CD45^pos) were determined by flow cytometry.\n(§2) Adherent cells were grown in 24-well plates to confluence and treated with 40 μg/ml Imiquimod® for 24 h. Cells were then trypsinized, suspended in full medium, stained for AnnexinV/PI and apoptosis was measured as described before. […]"}, "[2]": {"system": "MDA468, CHO, ONK2, MCF7, HeLa, Raji, Daudi, Ramos, C7H2 and Jurkat; adherent cell lines", "assay": "Annexin V/PI apoptosis assay, non-MM and adherent cell lines", "type": "cell-based", "description": "as §1, §2"}, "[3]": {"system": "Raji, Daudi, Ramos, Jurkat, C7H2 cell lines", "assay": "Annexin V/PI apoptosis assay, non-multiple myeloma suspension cell lines", "type": "cell-based", "conditions": "24 h", "description": "After treatment adherent cells were trypsinized (as described before), and resuspended in corresponding full medium. Suspension cells or trypsinized adherent cells, supernatant and washing solution (1×PBS from washing before trypsinization) were pooled and then spun down (300 g for 3 min) washed in 2 ml and resuspended in 1000 of annexin V binding buffer and mixed with 2 μg/ml annexin V-Allophycocyanin (APC) (BD-Pharmingen, San Diego, Calif., USA) and 50 ng/ml of propidium iodide (PI; Sigma Aldrich). At least 10.000 cells were measured per sample using a Becton Dickinson FACSCalibur flow Cytometer (San Jose, Calif., USA). Percentage of Annexin V negative and PI negative cells were depicted in the figures. For the analysis of the pro-apoptotic activity of Imiquimod® in primary MM cells and non-malignant BMMCs, 5×10^5 cells BMMCs cells were treated with or without 40 μg/ml Imiquimod® for the indicated time periods. Cells were then harvested and washed twice with PBS. Detection of apoptotic cells was performed using the annexin V/PI assay according to manufacturers' instruction. Briefly, BMMCs were stained with a mixture of annexin V/FITC (Alexis Coorp., Laeufelfingen, Switzerland), propidium iodide (Sigma), anti-CD38-PE and anti-CD45-PC5 for 15 min at room temperature and immediately analyzed by flow cytometry. The percentages of viable cells (i.e. cells negative for annexin V/FITC and PI) within the MM (CD38^posCD45^low/absent) and non-MM fraction (CD38^neg/CD45^pos) were determined by flow cytometry.\nAdherent cells were grown in 24-well plates to confluence and treated with 40 μg/ml Imiquimod® for 24 h. Cells were then trypsinized, suspended in full medium, stained for AnnexinV/PI and apoptosis was measured as described before. Suspension cells (250.000) were treated with 40 μg/ml Imiquimod® for 24 h, stained for Annexin/PI and apoptosis was measured as described above (Annexin V/Propidium Iodide apoptosis Assay)."}, "[4]": {"system": "non-tumor cells (CD38negCD45high)", "assay": "Annexin V/PI apoptosis assay, non-tumor fraction of patient BMMCs", "type": "cell-based, human", "conditions": "CD45high non-tumor cells, 40 μg/ml, 8 h or 24 h", "description": "For collection of primary multiple myeloma cells, bone marrow aspirates from iliac crests were collected during routine examinations after obtaining informed patient consent. Bone marrow mononuclear cells (BMMCs) were separated by density centrifugation. Fresh blood samples were diluted 1:1 with RPMI 1640 medium and layered over Biocoll separating solution (1.077 g/ml, Biochrom AG, Berlin; blood/RPMI1640/Biocoll; 1:1:1, v/v/v). Centrifugation was carried out for 20 min at 400 g. […] The percentage of multiple myeloma cells within the BMMCs was determined by flow cytometry. Briefly, 2×10^5 cells were stained for 15 min with fluorochrome-labelled antibodies to CD38 (phycoerythrin, PE) and CD45 (phycoerythrin-cyanin 5, PC5) (both from Beckman Coulter Inc., Fullerton, Calif., USA), washed with PBS and were immediately analyzed using the FC500 flow cytometer and the RXP1.0 software (Beckman Coulter). MM cells were detected by their high expression of CD38 and weak to absent expression of CD45.\nAfter treatment adherent cells were trypsinized (as described before), and resuspended in corresponding full medium. […] At least 10.000 cells were measured per sample using a Becton Dickinson FACSCalibur flow Cytometer (San Jose, Calif., USA). […]"}, "OPM2 cells": {"system": "OPM2 cells", "assay": "Growth of OPM2 cells under multiple low doses (cell counting)", "type": "cell-based", "description": "2×10^5 OPM2 cells in 1 ml of full medium were cultured in 24-well plates in duplicates for 8 days. For the first three days the appropriate amount of Imiquimod® (1, 2, 5, 5, or 10 μg/ml) was added daily. For determination of absolute cell numbers 100 μl of cell suspension were taken on days 1-5 and day 8 and cell number was determined using the CASY Cell Counter Model DT (Schärfe System GmbH, Reutlingen, Germany). On the fourth day cells were spun down (200 g, 2 min) and 600 μl of the remaining 700 μl of supernatant (100 μl were left to keep cell pellet undisturbed) were removed and 600 μl of fresh full medium was added to the cell culture."}, "OPM-2 cells xenograft": {"system": "OPM-2 cells xenograft", "type": "in vivo, NIH III-nude mice", "description": "Average tumor diameter and mouse body weight was measured every 3rd day.\nTreatment was started when tumors reached an average diameter of 0.8 cm and mice were sacrificed when the tumor reached an average diameter of 1.5 cm. A maximum volume of 150 μl of Imiquimod®, in a concentration of 2.5 mg/ml in H2O, was injected subcutaneously into the left flank of the mice. The same amount of H2O was injected in the same way into control mice. Tumor volume was calculated with the formula 4π/3×(width/2)2×(length/2)."}}, "data": [{"smiles": "CC(C)Cn1cnc2c(N)nc3ccccc3c21", "note": "[Imiquimod, 1-(2-methylpropyl)-1H-imidazo[4,5-c]quinolin-4-amine]", "values": [{"measurement": "apoptosis induction", "setting": "[1]", "value": "no significant apoptosis induction"}, {"measurement": "sensitivity to Imiquimod", "setting": "[2]; MDA468, CHO, ONK2, MCF7, HeLa, Raji, Daudi, Ramos, C7H2 and Jurkat", "value": "no sensitivity"}, {"measurement": "sensitivity (apoptosis)", "setting": "[2]; set of adherent cell lines, 40 μg/ml, 24 h", "value": "no significant or only minimal sensitivity"}, {"measurement": "sensitivity (apoptosis)", "setting": "[3]; Raji and Jurkat, 40 μg/ml", "value": "if at all only low sensitivity"}, {"measurement": "apoptosis induction", "setting": "[3]; Raji, Daudi, Ramos, Jurkat, C7H2, 20 μg/ml", "value": "apoptosis to some minor degree"}, {"measurement": "apoptosis induction", "setting": "[4]", "value": "induction of apoptosis"}, {"measurement": "cell growth inhibition", "setting": "OPM2 cells; 3-times given dose of 10 μg/ml", "value": "sufficient to irreversibly inhibit cell growth"}, {"measurement": "cell growth inhibition", "setting": "OPM2 cells; triple treatment with 5 μg/ml", "value": "sufficient to significantly block the growth potential"}, {"measurement": "changes in tumor volume", "setting": "OPM-2 cells xenograft; 10 mg/kg s.c. twice daily", "value": "ranging from tumor regression and stagnation, via slower growth to increase in tumor volume comparable to controls"}, {"measurement": "histological analysis of tumors (haematoxylin and eosin)", "setting": "OPM-2 cells xenograft; 10 mg/kg s.c. twice daily", "value": "regions of massive tissue destruction"}, {"measurement": "tumor regression", "setting": "OPM-2 cells xenograft; 10 mg/kg s.c. twice daily", "value": 5, "unit": "cases"}, {"measurement": "weight development, treated versus control mice", "setting": "OPM-2 cells xenograft; 10 mg/kg s.c. twice daily", "value": "no difference"}, {"measurement": "survival of treated mice", "setting": "OPM-2 cells xenograft; 10 mg/kg s.c. twice daily vs H2O, p=0.027, t-test", "value": "significantly increased"}, {"measurement": "side effects", "setting": "OPM-2 cells xenograft; 10 mg/kg s.c. twice daily, besides scars at the injection site", "value": "no obvious side effects could be observed"}]}]}
